Source: article PMC4642672, “The GH5 1,4-β-mannanase from Bifidobacterium animalis subsp. lactis Bl-04 possesses a low-affinity mannan-binding module and highlights the diversity of mannanolytic enzymes” (BMC Biochemistry, 2015)

Legend:
BlMan5_8 = target: T1, BlMan5_8 (Bifidobacterium animalis, UniProt B8DWU0); assay: surface plasmon resonance, steady state, enzyme immobilised by amine coupling; format: binding; settings: 10 mM MES, 150 mM NaCl, 0.005% P20, pH 6.0, 25 °C, one-site fit
T1 construct: gene BLA_0648; mature enzyme without signal peptide (residues 1-29 removed), GH5_8 + C-terminal CBM10; N-terminal His6 tag cleaved by thrombin; E. coli BL21(DE3)
T1 sequence (B8DWU0 entry or part of it): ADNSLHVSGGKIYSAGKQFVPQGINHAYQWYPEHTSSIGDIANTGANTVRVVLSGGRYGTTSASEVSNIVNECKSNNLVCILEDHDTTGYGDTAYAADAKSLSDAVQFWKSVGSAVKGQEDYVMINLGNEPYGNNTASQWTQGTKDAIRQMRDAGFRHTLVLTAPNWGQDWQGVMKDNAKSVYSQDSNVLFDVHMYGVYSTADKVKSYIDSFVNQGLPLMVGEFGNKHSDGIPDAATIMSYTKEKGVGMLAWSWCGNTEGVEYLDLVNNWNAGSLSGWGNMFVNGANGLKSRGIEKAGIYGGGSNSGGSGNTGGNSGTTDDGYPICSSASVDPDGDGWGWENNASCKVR
Text: surface plasmon resonance, steady state, enzyme immobilised by amine coupling on BlMan5_8

BlMan5_8-ΔCBM10 = target: T2, BlMan5_8-ΔCBM10 (Bifidobacterium animalis, UniProt B8DWU0); assay: as above; format: binding; settings: 10 mM MES, 150 mM NaCl, 0.005% P20, pH 6.0, 25 °C; one-site fit; catalytic module
T2 construct: gene BLA_0648; catalytic GH5_8 module, C-terminal CBM10 deleted by stop codon at Ser338 in linker; signal peptide (1-29) removed; N-terminal His6 tag cleaved by thrombin; E. coli BL21(DE3)
T2 sequence (B8DWU0 entry or part of it, stated change not applied): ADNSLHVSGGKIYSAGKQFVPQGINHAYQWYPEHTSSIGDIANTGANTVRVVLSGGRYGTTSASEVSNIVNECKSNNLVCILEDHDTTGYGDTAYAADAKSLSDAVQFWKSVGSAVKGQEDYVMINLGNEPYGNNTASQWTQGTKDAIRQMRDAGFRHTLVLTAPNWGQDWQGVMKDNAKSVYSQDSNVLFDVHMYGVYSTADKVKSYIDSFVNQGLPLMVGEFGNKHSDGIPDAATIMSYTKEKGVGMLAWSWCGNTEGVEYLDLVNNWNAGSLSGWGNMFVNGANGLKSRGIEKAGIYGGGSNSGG
Text: surface plasmon resonance, steady state, enzyme immobilised by amine coupling on BlMan5_8-ΔCBM10

[1] = catalytic module and CBM10 both bind

## OC[C@H]1O[C@@H](O[C@H]2[C@H](O)[C@H](O)[C@H](O[C@H]3[C@H](O)[C@H](O)[C@H](O[C@H]4[C@H](O)[C@H](O)C(O)O[C@@H]4CO)O[C@@H]3CO)O[C@@H]2CO)[C@@H](O)[C@@H](O)[C@@H]1O (some centres unmarked) [M4, mannotetraose]
BlMan5_8; CBM10 site suggested
  Kd: 5100 ± 800 µM

## OC[C@H]1O[C@@H](O[C@H]2[C@H](O)[C@H](O)[C@H](O[C@H]3[C@H](O)[C@H](O)[C@H](O[C@H]4[C@H](O)[C@H](O)[C@H](O[C@H]5[C@H](O)[C@H](O)C(O)O[C@@H]5CO)O[C@@H]4CO)O[C@@H]3CO)O[C@@H]2CO)[C@@H](O)[C@@H](O)[C@@H]1O (some centres unmarked) [M5, mannopentaose]
BlMan5_8-ΔCBM10
  Kd: 1500 ± 300 µM
BlMan5_8; [1]
  Kd: 3700 ± 300 µM

## OC[C@H]1O[C@@H](O[C@H]2[C@H](O)[C@H](O)[C@H](O[C@H]3[C@H](O)[C@H](O)[C@H](O[C@H]4[C@H](O)[C@H](O)[C@H](O[C@H]5[C@H](O)[C@H](O)[C@H](O[C@H]6[C@H](O)[C@H](O)C(O)O[C@@H]6CO)O[C@@H]5CO)O[C@@H]4CO)O[C@@H]3CO)O[C@@H]2CO)[C@@H](O)[C@@H](O)[C@@H]1O (some centres unmarked) [M6, mannohexaose]
BlMan5_8-ΔCBM10
  Kd: 240 ± 420 µM
BlMan5_8; [1]
  Kd: 580 ± 50 µM
